Results on eight molecules are retold here after patent US20080194632A1, “Novel Piperidine Derivatives as Chemokine Receptor Modulators Useful for the Treatment of Respiratory Diseases” (ASTRAZENECA AB, priority 2005, published 2008).

The term IC50 denotes the concentration that gives 50% inhibition. Low values mean inhibition by little substance, high ones a need for much substance.

This test addresses T1, human CCR1 (Homo sapiens, UniProt P32246).
T1 construct: expressed in transfected cells; membranes prepared
T1 sequence (P32246 1-355): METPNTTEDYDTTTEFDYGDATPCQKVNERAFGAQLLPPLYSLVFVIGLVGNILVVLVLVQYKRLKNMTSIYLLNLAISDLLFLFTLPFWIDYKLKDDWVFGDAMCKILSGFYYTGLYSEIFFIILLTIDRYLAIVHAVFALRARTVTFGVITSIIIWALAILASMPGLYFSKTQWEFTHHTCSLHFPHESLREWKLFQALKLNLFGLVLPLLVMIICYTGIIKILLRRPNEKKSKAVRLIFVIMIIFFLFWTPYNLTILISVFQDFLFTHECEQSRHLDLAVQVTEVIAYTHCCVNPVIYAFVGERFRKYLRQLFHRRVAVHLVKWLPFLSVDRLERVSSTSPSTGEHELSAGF
Nature of the test: Human CCR1 binding assay ([125I] MIP-1α displacement). To be noted: displacement of 33 pM [125I] MIP-1α from HEK-CCR1 membranes, pH 7.4, 1.5 hrs at room temperature. The method, then: HEK293 cells, from ECACC, stably expressing recombinant human CCR1 (HEK-CCR1) were used to prepare cell membranes containing CCR1. The membranes were stored at −70° C. The concentration of membranes of each batch was adjusted to 10% specific binding of 33 pM [^125I] MIP-1α.
100 μL of HEK-CCR1 membranes diluted in assay buffer pH 7.4 (137 mM NaCl (Merck, Cat No 1.06404), 5.7 mM Glucose (Sigma, Cat No G5400), 2.7 mM KCl (Sigma, Cat No P-9333), 0.36 mM NaH2PO4×H2O (Merck, Cat No 1.06346), 10 mM HEPES (Sigma, Cat No H3375), 0.1% (w/v) Gelatine (Sigma, Cat No G2625)) with the addition of 17500 units/L Bacitracin (Sigma, Cat No B 1025) were added to each well of the 96 well filter plate (0.45 μm opaque Millipore cat no MHVB N4550). 12 μL of compound in assay buffer, containing 10% DMSO, was added to give final compound concentrations of 1×10^−5.5-1×10^−9.5 M. 12 μl cold human recombinant MIP-1α (270-LD-050, R&D Systems, Oxford, UK), 10 nM final concentration in assay buffer supplemented with 10% DMSO, was included in certain wells (without compound) as non-specific binding control (NSB). 12 μl assay buffer with 10% DMSO was added to certain wells (without compound) to detect maximal binding (B0).
12 μL [^125I] MIP-1α, diluted in assay buffer to a final concentration in the wells of 33 pM, was added to all wells. The plates with lid were then incubated for 1.5 hrs at room temperature. After incubation the wells were emptied by vacuum filtration (MultiScreen Resist Vacuum Manifold system, Millipore) and washed once with 200 μl assay buffer. After the wash, all wells received an addition of 50 μL of scintillation fluid (OptiPhase “Supermix”, Wallac Oy, Turko, Finland). Bound [^125I] MIP-1α was measured using a Wallac Trilux 1450 MicroBeta counter. Window settings: Low 5-High 1020, 1-minute counting/well.
The following equation was used to calculate percent displacement.
Percent displacement=1−((cpm test−cpm NSB)/(cpm B0−cpm NSB)) where:
cpm test=average cpm in duplicate wells with membranes and compound and [^125I] MIP-1α cpm; NSB=average cpm in the wells with membranes and MIP-1α and [^125I] MIP-1α (non-specific binding) cpm; B0=average cpm in wells with membranes and assay buffer and [^125I] MIP-1α (maximum binding).
The molar concentration of compound producing 50% displacement (IC50) was derived using the Excel-based program XLfit (version 2.0.9) to fit data to a 4-parameter logistics function.
For the molecule `CCC(=O)Nc1ccc(O)cc1OC[C@@](C)(O)CNC1CCN(Cc2ccc(Cl)cc2)CC1` [Comparison 1], the IC50 stood at 7 nM.
The molecule `CC(=O)Nc1ccc(O)cc1OC[C@@](C)(O)CNC1CCN(Cc2ccc(Cl)cc2)CC1` [Comparison 2] gave an IC50 of 3.9 nM.
Then `CC(=O)Nc1ccc(O)cc1OC[C@@H](O)CNC1CCN(Cc2ccc(Cl)cc2)CC1` [Comparison 8], with 4.5 nM.
For `CCC(=O)Nc1ccc(O)cc1OC[C@@H](O)CNC1CCN(Cc2ccc(Cl)cc2)CC1` [Comparison 9] the value was 13.6 nM; for `CCC(=O)Nc1cc(Cl)c(O)cc1OC[C@@](C)(O)CNC1CCN(Cc2ccc(Cl)cc2)CC1` [Example 1, N-{5-Chloro-2-[((2S)-3-{[1-(4-chlorobenzyl)piperidin-4-yl]amino}-2-hydroxy-2-methylpropyl)oxy]-4-hydroxyphenyl}propaneamide di-trifluoroacetate], 0.4 nM.
For `CC(=O)Nc1cc(Cl)c(O)cc1OC[C@@](C)(O)CNC1CCN(Cc2ccc(Cl)cc2)CC1` [Example 2, N-{5-Chloro-2-[((2S)-3-{[1-(4-chlorobenzyl)piperidin-4-yl]amino}-2-hydroxy-2-methylpropyl)oxy]-4-hydroxyphenyl}acetamide di-trifluoroacetate], the concentration for half-maximal inhibition (IC50) stood at 0.7 nM.
Molecule `CC(=O)Nc1cc(Cl)c(O)cc1OC[C@@H](O)CNC1CCN(Cc2ccc(Cl)cc2)CC1` [Example 8, N-{5-Chloro-2-[((2S)-3-{[1-(4-chlorobenzyl)piperidin-4-yl]amino}-2-hydroxypropyl)oxy]-4-hydroxyphenyl}acetamide di-trifluoroacetate] yielded an IC50 of 1.6 nM.
Then `CCC(=O)Nc1cc(Cl)c(O)cc1OC[C@@H](O)CNC1CCN(Cc2ccc(Cl)cc2)CC1` [Example 9, N-{5-Chloro-2-[((2S)-3-{[1-(4-chlorobenzyl)piperidin-4-yl]amino}-2-hydroxylpropyl)oxy]-4-hydroxyphenyl}propaneamide di-trifluoroacetate], with 2.7 nM.
